In BindingDB's records for doi:10.1021/jm00091a008 (Alter, 1992):

Molecular target: Voltage-dependent L-type calcium channel subunit alpha-1C (Oryctolagus cuniculus, UniProt P15381)
Assay: ChEBML_164619
Excerpt: Blockade of calcium-evoked contractions in depolarized aortic strips

Voltage-dependent L-type calcium channel subunit alpha-1C, sequence (P15381 whole entry): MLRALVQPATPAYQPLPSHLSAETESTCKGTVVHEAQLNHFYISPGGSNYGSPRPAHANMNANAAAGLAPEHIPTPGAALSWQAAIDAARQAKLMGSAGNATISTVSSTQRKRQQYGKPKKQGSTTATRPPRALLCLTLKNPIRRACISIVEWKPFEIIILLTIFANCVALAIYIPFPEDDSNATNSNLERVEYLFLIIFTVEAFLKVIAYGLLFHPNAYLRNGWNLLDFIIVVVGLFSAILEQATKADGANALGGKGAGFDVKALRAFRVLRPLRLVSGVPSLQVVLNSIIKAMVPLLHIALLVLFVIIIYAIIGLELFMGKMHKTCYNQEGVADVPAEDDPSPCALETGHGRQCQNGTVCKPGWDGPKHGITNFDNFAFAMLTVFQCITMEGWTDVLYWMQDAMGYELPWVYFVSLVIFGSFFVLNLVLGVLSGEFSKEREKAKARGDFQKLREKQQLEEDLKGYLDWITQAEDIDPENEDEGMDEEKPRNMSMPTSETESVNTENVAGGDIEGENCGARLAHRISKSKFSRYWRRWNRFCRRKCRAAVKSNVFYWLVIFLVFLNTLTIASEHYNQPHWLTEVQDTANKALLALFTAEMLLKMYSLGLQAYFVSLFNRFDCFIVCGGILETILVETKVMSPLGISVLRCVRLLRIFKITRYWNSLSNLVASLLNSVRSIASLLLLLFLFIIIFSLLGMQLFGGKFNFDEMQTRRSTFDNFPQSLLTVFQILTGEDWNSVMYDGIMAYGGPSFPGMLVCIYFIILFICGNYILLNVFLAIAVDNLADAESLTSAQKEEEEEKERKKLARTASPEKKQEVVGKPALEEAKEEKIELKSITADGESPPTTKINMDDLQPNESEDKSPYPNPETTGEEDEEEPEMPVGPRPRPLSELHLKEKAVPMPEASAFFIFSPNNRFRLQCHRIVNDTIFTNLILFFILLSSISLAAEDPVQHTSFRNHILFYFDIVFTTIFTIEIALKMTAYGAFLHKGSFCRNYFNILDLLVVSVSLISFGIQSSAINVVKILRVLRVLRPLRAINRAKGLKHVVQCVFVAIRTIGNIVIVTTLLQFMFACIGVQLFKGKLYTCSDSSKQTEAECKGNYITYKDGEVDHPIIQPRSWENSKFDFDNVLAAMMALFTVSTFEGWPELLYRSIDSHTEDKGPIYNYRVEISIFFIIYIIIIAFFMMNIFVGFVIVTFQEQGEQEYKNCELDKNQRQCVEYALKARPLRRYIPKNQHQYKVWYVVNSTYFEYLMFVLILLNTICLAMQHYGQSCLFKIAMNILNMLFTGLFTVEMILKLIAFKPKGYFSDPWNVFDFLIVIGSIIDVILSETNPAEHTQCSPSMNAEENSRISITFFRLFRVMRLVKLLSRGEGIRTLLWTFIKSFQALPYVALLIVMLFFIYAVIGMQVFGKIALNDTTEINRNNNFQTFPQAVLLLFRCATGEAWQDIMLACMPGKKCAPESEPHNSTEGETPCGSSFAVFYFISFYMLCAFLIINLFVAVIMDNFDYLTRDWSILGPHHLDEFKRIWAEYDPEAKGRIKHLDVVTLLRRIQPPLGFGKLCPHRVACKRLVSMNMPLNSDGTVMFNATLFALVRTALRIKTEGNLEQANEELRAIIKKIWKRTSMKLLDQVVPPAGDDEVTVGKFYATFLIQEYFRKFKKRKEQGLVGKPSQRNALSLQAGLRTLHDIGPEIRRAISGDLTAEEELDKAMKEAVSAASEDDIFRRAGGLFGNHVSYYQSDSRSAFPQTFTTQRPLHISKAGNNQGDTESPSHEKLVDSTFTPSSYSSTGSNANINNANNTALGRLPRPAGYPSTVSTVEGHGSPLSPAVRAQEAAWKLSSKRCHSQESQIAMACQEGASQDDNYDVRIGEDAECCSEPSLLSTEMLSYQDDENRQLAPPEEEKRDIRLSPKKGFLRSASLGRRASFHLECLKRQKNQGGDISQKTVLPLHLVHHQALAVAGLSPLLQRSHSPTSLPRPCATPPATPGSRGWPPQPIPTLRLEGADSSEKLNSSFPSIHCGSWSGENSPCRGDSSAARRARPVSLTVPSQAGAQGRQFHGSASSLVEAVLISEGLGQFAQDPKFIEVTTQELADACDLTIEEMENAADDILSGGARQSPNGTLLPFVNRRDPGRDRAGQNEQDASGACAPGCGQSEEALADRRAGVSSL

IC50 [nM]	Compound
25	CC1=NC(C)=C(C(=O)OCC2CCCCO2)C(c2ccccc2[N+](=O)[O-])C1=C(O)OCN1C(=O)c2ccccc2S1(=O)=O (centres undefined)
2.9	COCCOC(=O)C1C(C)=NC(C)=C(C(=O)OCN2C(=O)c3ccccc3S2(=O)=O)C1c1cccc(Cl)c1Cl (centres undefined)
5.1	COC(=O)C1C(C)=NC(C)=C(C(=O)OCN2C(=O)c3ccccc3S2(=O)=O)C1c1cccc(Cl)c1Cl (centres undefined)
25	CC1=NC(C)=C(C(=O)OCC2CCCO2)C(c2cccc([N+](=O)[O-])c2)C1=C(O)OCN1C(=O)c2ccccc2S1(=O)=O (centres undefined)
